Results: patent US4897490A, “Antihypercholesterolemic tetrazole compounds” (Bristol-Meyers Company, priority 1988, dated 1990)
Like-named read-outs stand apart in the source and are kept apart here. Each block holds one compound with its values, some of them ahead of it.

What was measured:
[1] = target: T1, rat liver HMG-CoA reductase (Rattus norvegicus, UniProt P51639); assay: Test A: In Vitro Inhibition of Microsomal HMG-CoA Reductase; format: biochemical; conditions: microsomal rat liver enzyme; [3-14C]-HMG-CoA 0.33 mM, NADPH 3.0 mM; pH 7.2
T1 construct: from tissue; host or cells: rat liver microsomes
T1 sequence (P51639 1-887): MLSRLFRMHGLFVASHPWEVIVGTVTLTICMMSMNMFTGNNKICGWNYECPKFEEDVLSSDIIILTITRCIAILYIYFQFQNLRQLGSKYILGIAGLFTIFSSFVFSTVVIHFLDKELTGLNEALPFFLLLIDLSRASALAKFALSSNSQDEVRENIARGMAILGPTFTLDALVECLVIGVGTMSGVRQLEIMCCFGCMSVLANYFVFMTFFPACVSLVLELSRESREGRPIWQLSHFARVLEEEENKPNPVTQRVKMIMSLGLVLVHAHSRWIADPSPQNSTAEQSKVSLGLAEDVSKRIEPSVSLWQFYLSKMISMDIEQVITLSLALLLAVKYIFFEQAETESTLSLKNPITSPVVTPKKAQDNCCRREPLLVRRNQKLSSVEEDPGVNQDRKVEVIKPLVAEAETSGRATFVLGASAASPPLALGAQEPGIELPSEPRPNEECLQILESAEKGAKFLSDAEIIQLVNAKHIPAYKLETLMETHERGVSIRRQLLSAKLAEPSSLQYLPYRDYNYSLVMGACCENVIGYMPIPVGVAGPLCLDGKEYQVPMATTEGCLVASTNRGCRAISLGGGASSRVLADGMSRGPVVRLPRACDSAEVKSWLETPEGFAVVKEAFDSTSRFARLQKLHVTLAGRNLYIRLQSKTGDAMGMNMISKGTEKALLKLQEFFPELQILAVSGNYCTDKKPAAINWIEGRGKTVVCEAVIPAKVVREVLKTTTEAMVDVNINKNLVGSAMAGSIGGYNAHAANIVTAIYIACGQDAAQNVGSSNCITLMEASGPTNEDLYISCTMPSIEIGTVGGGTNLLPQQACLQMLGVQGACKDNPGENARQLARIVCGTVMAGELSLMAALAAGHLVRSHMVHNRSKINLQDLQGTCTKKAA
Method: Test A: In Vitro Inhibition of Microsomal HMG-CoA Reductase:
The intact, fully activated microsomal form of rat liver HMG-CoA reductase (subunit MW ca 100,000 daltons) was prepared as described by Parker, et al., Biochem. Biophys. Res. Commun., 125, 629-635 (1984), and used as the source of enzyme for assays. HMG-CoA reductase activity was determined essentially by the method of Shapiro, et al., Biochem. Biophys. Acta., 370, 369-377 (1974), with modifications as described by Ingebritsen and Gibson, Meth. Enzymol. 71, 486-497 (1981) with the exception that the internal standard ^3 H-mevalonolactone is added after termination of the assay. In this procedure, the enzyme is assayed by measuring the formation of product, ^14 C-mevalonate, from the substrate, [3-^14 C]-HMG-CoA, in the presence of NADPH. The ^14 C-mevalonate is converted to its lactone and isolated by silica thin-layer chromatography (Whatman LK5D, developed in 50:50 benzene:acetone) in the presence of ^3 H-mevalonolactone as an internal standard. Assays were conducted under conditions in which product formation was linear with respect to time and enzyme concentration.
To measure reductase inhibition, test compounds dissolved in water or dimethylsulfoxide and diluted in buffer A (50 mM imidazole-HCl, 250 mM NaCl, 1 mM EDTA, 1 mM EGTA, 5 mM DTT, 20 μM leupeptin, pH=7.2) were incubated with aliquots of microsomes (80-160 μg protein in buffer A) followed by addition of d,1-[3-^14 C]-HMG-CoA (0.33 mM, 2.0 dpm/picomole) and NADPH (3.0 mM). The 50 percent inhibitory concentration (IC50) for each compound in Table 1 was calculated from the linear regression line of the percent decrease (from control) in enzyme activity vs. log concentration of inhibitor, determined using at least 4 dilutions of each test compound assayed in duplicate.

[2] = system: de novo biosynthesis of cholesterol; assay: Test C: In Vivo Acute Cholesterol Biosynthesis Inhibition in Rats; set-up: species or system male Wistar rats; conditions: Rattus norvegicus, 1 h
Method: Test C: In Vivo Acute Cholesterol Biosynthesis Inhibition in Rats:
Male Wistar rats (160-200 g, housed 2 per cage) were maintained on normal diet (Purina Rat Chow and water, ad libitum) for at least 7 days on a reversed lighting schedule (7:00 a.m. to 5:00 p.m. dark). Food was removed 15 hours prior to dosing. Compounds were administered at 8:00 a.m. by intragastric intubation using 0.5-1.0 mL of water or propylene glycol solutions of sodium salts, lactones, or esters of the test compounds. Controls received equal volumes of the vehicle.
Thirty minutes after receiving the test substances, rats were injected intraperitoneally with 0.9 mL of 0.9% NaCl containing approximately 120 μCi per kg body weight of sodium [1-^14 C] acetate (1-3 mCi/mmol). After a 60 minute incorporation period, rats were sacrificed and liver and blood samples were obtained. Aliquots of plasma (1.0 mL) obtained by centrifugation of heparin+EDTA-treated blood, and aliquots of liver homogenates (equivalent to 0.50 g liver wet weight) were taken for determination of radiolabeled 3β-hydroxy sterols. Sterol isolation for the liver samples followed the method of Kates as described above for the hepatocyte procedure (Test B) while the plasma samples were directly saponified followed by isolation of the digitonin-precipitable sterols. ^14 C-labelled sterols were quantified by liquid scintillation counting (efficiency corrected). Mean percent inhibition of ^14 C incorporated into liver and into plasma cholesterol were calculated for groups of treated animals and compared to mean values for controls conducted simultaneously.
Therefore, Test C provides information on the ability of test substances to suppress the de novo biosynthesis of cholesterol in vivo in rats with oral dosing.

[3] = system: Isolated Hepatocyte Cholesterol Biosynthesis; assay: Test B: Isolated Hepatocyte Cholesterol Biosynthesis Assay; format: cell-based, male Wistar rats; conditions: isolated rat hepatocytes, 10 min preincubation, 60 minutes at 37°, incorporation into sterols, read-out: Inhibition of Isolated Hepatocyte Cholesterol Biosynthesis IC50
Method: Test B: Isolated Hepatocyte Cholesterol Biosynthesis Assay:
Intact parenchymal hepatocytes were isolated from male Wistar rats (180-280 g) fed cholestyramine-containing or normal diet, using the collagenase perfusion method essentially as described by Seglen, in Methods in Cell Biology (D. Prescott, ed.) Vol. 13, pp. 29-83, Academic Press, New York (1976). Cell preparations were used only when viability (trypan blue exclusion) exceeded 90%. Cholesterol biosynthesis was determined as the incorporation by hepatocytes of ^3 H from [^3 H]-water into total (cellular plus medium) 3β-hydroxy sterols as per Ingebritsen, et al., J. Biol. Chem., 254, 9986-9989 (1979). Hepatocyte sterols and lipids were isolated by a modification of the methods described by Kates, in Techniques in Lipidology, (M. Kates, ed.), pp. 349, 360-363, North Holland Publ. Co., Amsterdam, 1972. […] The ^3 H-labelled sterols are quantified by liquid scintillation and corrected for counting efficiency. […]
Cells were preincubated for 10 minutes with or without aliquots of test compounds added as water solutions of sodium salts or as dimethylsulfoxide solutions of lactones. […] The IC50 for inhibition of sterol synthesis by test compounds which is shown in Table 2 was calculated from the linear regression curve of % inhibition (compared to controls) vs. log concentration using at least 4 concentrations of inhibitor. […]

IC50 [1]: 37 ± 10 nM
SMILES: Cn1nnnc1C(/C=C/[C@@H](O)C[C@@H](O)CC(=O)O)=C(c1ccc(F)cc1)c1ccc(F)cc1 (relative stereo) [Example 12, Sodium (±)-erythro-9,9-bis(4-fluorophenyl)-3,5-dihydroxy-8-(1-methyl-1H-tetrazol-5-yl)-6,8-nonadionate]
ED50 ([2]; read-out: 50% Inhibitory Dose (ED50), liver cholesterol, oral (intragastric), liver, 14C-acetate incorporation 60 minutes): 0.08 mg/kg
ED50 ([2]; read-out: 50% Inhibitory Dose (ED50), plasma cholesterol, oral (intragastric), plasma, 14C-acetate incorporation 60 minutes): 0.08 mg/kg
IC50 [3]: 23 ± 11 nM

IC50 [1]: 5700 nM
SMILES: Cn1nnnc1C(/C=C/C=C/[C@@H](O)C[C@@H](O)CC(=O)O)=C(c1ccc(F)cc1)c1ccc(F)cc1 (relative stereo) [Example 15, Sodium (±)-erythro-11,11-bis(4-fluorophenyl)-3,5-dihydroxy-10-(1-methyl-1H-tetrazol-5-yl)-6,8,10-undecatrienoate]

Further lines, the compound ahead of its results:

SMILES: CCOC(=O)C[C@H](O)C[C@H](O)/C=C/C(=C(c1ccc(F)cc1)c1ccc(F)cc1)c1nnnn1C (relative stereo) [Example 11, Ethyl (±)-erythro-9,9-bis(4-fluorophenyl)-3,5-dihydroxy-8-(1-methyl-1H-tetrazol-5-yl)-6,8-nonadienoate]
IC50 [1]: > 330000 nM

SMILES: Cn1nnnc1C(/C=C/[C@@H]1C[C@@H](O)CC(=O)O1)=C(c1ccc(F)cc1)c1ccc(F)cc1 (relative stereo) [Example 13, Trans-6-[4,4-bis(4-fluorophenyl)-3-(1-methyl-1H-tetrazol-5-yl)-1,3-butadienyl]-tetrahydro-4-hydroxy-2H-pyran-2-one]
IC50 [1]: 1090 ± 290 nM

SMILES: CC[C@H](C)C(=O)O[C@H]1C[C@@H](C)C=C2C=C[C@H](C)[C@H](CC[C@@H]3C[C@@H](O)CC(=O)O3)[C@H]21 [Mevinolin (Lovastatin), reference compound]
ED50 ([2]; oral (intragastric), 14C-acetate incorporation 60 minutes, read-out: ED50 value (reference agent, tissue not stated)): 0.04 mg/kg
IC50 [3]: 46 ± 26 nM
